Measurements as given in article PMC5131496, “In vitro and in vivo anti-malarial activity of novel harmine-analog heat shock protein 90 inhibitors: a possible partner for artemisinin” (Malaria Journal, 2016).

Target: T1, P. falciparum heat shock protein 90 (PfHsp90) (Plasmodium falciparum, UniProt Q8IC05)
T1 construct: gene PF3D7_0708400
Experiment: bis-ANS fluorescence competitive binding assay with purified recombinant GHKL domain

T1 sequence (Q8IC05 1-211 limits assumed): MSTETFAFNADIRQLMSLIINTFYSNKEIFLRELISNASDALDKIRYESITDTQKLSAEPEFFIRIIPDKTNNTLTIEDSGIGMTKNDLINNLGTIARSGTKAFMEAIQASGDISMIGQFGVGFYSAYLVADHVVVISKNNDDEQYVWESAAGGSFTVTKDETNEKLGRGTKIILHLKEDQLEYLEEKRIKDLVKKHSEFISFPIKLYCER

Compound `CC1NCCc2c1[nH]c1ccc(Br)cc21` (centres unmarked) [21A] has an IC50 of 23.1 ± 8.8 µM.
In the case of `CC1NCCc2c1[nH]c1ccc(Cl)cc21` (centres unmarked) [17A], the IC50 is reported as 12.2 ± 2.3 µM.
